Source: patent US20120315342A1, “EPITHELIAL CELL-CELL ADHESION ENHANCER, AND AMELIORATING, THERAPEUTIC OR PROPHYLACTIC AGENT FOR ALLERGIC DISEASES USING SAME” (Tokai Medical Test Laboratory Co., priority 2010, published 2012)

Legend:
Assay type in all cases: cell-based
Caco-2 cells [1] = test: Recovery of TEER after decreased epithelial cell-cell adhesion caused by extracellular calcium deficiency (Examples 1-3); settings: for recovery of TEER in comparison with the negative control group / recovery-promoting effect on TEER in comparison with the positive control group: Example 1, FIG. 1, 1 wt. % in calcium-containing DMEM after 2 h calcium-free DMEM, n=3
Excerpt: (§1) The oligosaccharide containing 1-kestose used in the present Example 1 is composed of 98 wt. % 1-kestose, 1 wt. % nystose, and 1 wt. % sucrose. Namely, it is an oligosaccharide containing 1-kestose at a purity of 98 wt. %. Also, as the index for the cell-cell adhesion strength in cultured cells, transepithelial electrical resistance (TEER) was used. This measurement method utilizes a property that the stronger the epithelial cell-cell adhesion, the bigger the electrical resistance value between the upper layer and the lower layer of the cell culture medium, and this technique is also employed for a model experiment using epithelial cells and the like.
(§2) Caco-2 cells, which are the epithelial colorectal carcinoma cells, were subcultured in a 10% FES-containing DMEM medium (GIBCO), and the 48th generation of cultured cells were cryopreserved and used for the following experiments. The Caco-2 cells were seeded in the upper layer of a Transwell (Corning Life Sciences) and cultured in an incubator in 5% CO2 at 37° C. in the presence of a 10% FBS-containing DMEM medium. Cell culture was performed until the electrical resistance between the upper layer and the lower layer of the Transwell (TEER) reached 400 to 500 Ω·cm^2.
The Caco-2 cells that were cultured until TEER of the Transwell reached 400 to 500 Ω·cm^2 were cultured for two hours after exchanging the 10% FES-containing DMEM medium for a calcium-free DMEM medium. Subsequently, a calcium-containing DMEM medium to which an oligosaccharide containing 1-kestose, or nystose, was added at a concentration of 1 wt. % was added to the upper layer. Then, TEER was chronologically measured every half hour, and the cells were cultured up to 22 hours and then TEER was measured (1% kestose group, 1% nystose group, n=3). As the control group, a group of cells that were cultured only in a calcium-free DMEM medium (negative control group, n=3) and a group in which culture was performed for two hours in a calcium-free DMEM medium, and then the medium was only exchanged for a calcium-containing DMEM medium (positive control group, n=3) were prepared, and chronological changes in TEER were compared.
The Caco-2 cells that were cultured until TEER of the Transwell reached 400 to 500 Ω·cm^2 were cultured for two hours after exchanging the 10% FBS-containing DMEM medium for a calcium-free DMEM medium. Subsequently, a calcium-containing DMEM medium to which an oligosaccharide containing 1-kestose was added at a concentration of 1 wt. % was added to the upper layer. Then, TEER was chronologically measured every half hour, and the cells were cultured up to three hours and then TEER was measured (calcium (+) 1% kestose group, n=3). Also, a group in which an oligosaccharide containing 1-kestose was added at a concentration of 1 wt. % to the calcium-free DMEM medium, while the medium was not exchanged for a calcium-containing DMEM medium, and cell culture was performed up to three hours and then TEER was measured was prepared (calcium (−) 1% kestose group, n=3). As the control group, a group of cells that were cultured only in a calcium-free DMEM medium (negative control group, n=3) and a group in which culture was performed for two hours in a calcium-free DMEM medium, and then the medium was only exchanged for a calcium-containing DMEM medium (positive control group, n=3) were prepared, and chronological changes in TEER were compared.
The Caco-2 cells that were cultured until TEER of the Transwell reached 400 to 500 Ω·cm^2 were cultured for two hours after exchanging the 10% FBS-containing DMEM medium for a calcium-free DMEM medium. Subsequently, a calcium-containing DMEM medium to which an oligosaccharide containing 1-kestose was added at a concentration of 1 wt. % or 0.1 wt. % was added to the upper layer. Then, TEER was chronologically measured every half hour, and the cells were cultured up to 3.5 hours and then TEER was measured (1% kestose group, 0.1% kestose group, n=3). […]

Caco-2 cells [2] = test: Lucifer Yellow permeation from upper to lower layer after extracellular calcium deficiency (Example 5); settings: Example 5, FIG. 6, 3 h; for residual concentration of Lucifer Yellow in the lower layer compared to the negative control group: 1 wt. % in calcium-containing medium, Lucifer Yellow in upper layer
Method: as §2
The Caco-2 cells that were cultured until TEER of the Transwell reached 400 to 500 Ω·cm^2 were cultured for two hours after exchanging the 10% FBS-containing DMEM medium for a calcium-free colorless HESS medium (GIBCO). Subsequently, a calcium-containing colorless HESS medium (GIBCO) to which an oligosaccharide containing 1-kestose, sucrose, or nystose was added at a concentration of 1 wt. % was added to the upper layer. At the same time, Lucifer Yellow (MP Biomedical LLC.) was added to the upper layer at a concentration of […] as a substance passing between the cells. After culturing for three hours, the HBSS medium in the lower layer was collected, and the residual concentration of Lucifer Yellow that had permeated from the upper layer to the lower layer was measured (1% kestose group, 1% sucrose group, and 1% nystose group, n=3). As the control group, a group of cells cultured only in a calcium-free HBSS medium (negative control group, n=3) and a group in which culture was performed for two hours in a calcium-free HBSS medium, and then the medium was only exchanged for a calcium-containing HBSS medium (positive control group, n=3) were prepared, and the amounts of substances that passed between the cells were compared.

Caco-2 cells [3] = test: Inhibition of TEER decrease caused by inflammatory cytokine IL-1β (Example 6)
Excerpt: as §1
Caco-2 cells, which are the epithelial colorectal carcinoma cells, were subcultured in a 10% FES-containing DMEM medium (GIBCO), and the 48th generation of cultured cells were cryopreserved and used for the following experiments. […]
To the upper layer of a DMEM medium in which the Caco-2 cells were cultured until TEER of the Transwell reached 400 to 500 Ω·cm^2, an oligosaccharide containing 1-kestose was added at a concentration of 1 wt. %. […] TEER was measured 48 hours later and a ratio of the value thus measured to the initial measured value of TEER was calculated (1% kestose (+), IL-1β(+) group, n=3). […]

Caco-2 cells [4] = test: Prior administration of 1-kestose, inhibition of TEER decrease caused by extracellular calcium deficiency (Example 4); settings: for TEER right before exchanging the medium for calcium-free DMEM, versus negative and positive control groups: 1 wt. %; for decrease in TEER after exchange for calcium-free DMEM and elimination of 1-kestose, versus negative control group: 1 wt. % prior administration
Excerpt: as §1, §2
The Caco-2 cells were cultured until TEER of the Transwell reached 400 to 500 Ω·cm^2. The 10% FES-containing DMEM medium was exchanged for a […] DMEM medium, and an oligosaccharide containing 1-kestose was added at a concentration of 1 wt. % to the upper layer. The medium was exchanged for a calcium-free medium one hour or six hours later, and TEER was chronologically measured three times, every half hour (1-hour calcium (+) 1% kestose group, 6-hour calcium (+) 1% kestose group, n=3). As the control group, a group in which culture was performed for one hour or six hours in a calcium- containing DMEM medium, and then in a calcium-free DMEM medium (1-hour calcium (+) negative control group, 6-hour calcium (+) negative control group, n=3) and a group of cells that were cultured only in a calcium-containing DMEM medium (positive control group, n=3) were prepared, and chronological changes in TEER were compared.

[5] = Example 4, FIG. 4, 1-hour calcium (+)
[6] = Example 4, FIG. 5, 6-hour calcium (+)

| SMILES | recovery of TEER in comparison with the negative control group (Caco-2 cells [1]) | recovery-promoting effect on TEER in comparison with the positive control group (Caco-2 cells [1]) | residual concentration of Lucifer Yellow in the lower layer compared to the negative control group (Caco-2 cells [2]) | residual concentration of Lucifer Yellow in the lower layer compared to the positive control group (Caco-2 cells [2]; 1 wt. %) | average TEER ratio (to the initial measured value of TEER) (Caco-2 cells [3]; Example 6, FIG. 7, 1 wt. % for 24 h, then IL-1β 10 ng/mL in lower layer, measured 48 h later, n=3) | inhibition of the decrease of TEER (Caco-2 cells [3]; Example 6, 1 wt. %, IL-1β 10 ng/mL, 48 h) | promotion of TEER recovery compared to the 1% nystose group (Caco-2 cells [1]; Example 1, 1 wt. %) | recovery-promoting effect relative to the positive control group, on average (Caco-2 cells [1]; Example 1, 1 wt. %, 30 minutes after exchanging calcium-free for calcium-containing DMEM) | effect of promoting recovery of TEER in comparison with the positive control group (Caco-2 cells [1]; Example 2, FIG. 2, calcium (+), 1 wt. %) | recovery of TEER (Caco-2 cells [1]; Example 2, FIG. 2, calcium (+), 1 wt. % in calcium-containing DMEM, up to 3 h) | recovery of TEER (Caco-2 cells [1]; Example 2, FIG. 2, calcium (−), 1 wt. % in calcium-free DMEM, up to 3 h) | recovery of TEER (Caco-2 cells [1]; Example 3, FIG. 3, 0.1 wt. % in calcium-containing DMEM, up to 3.5 h) | promotion of recovery of TEER, 1% group versus 0.1% group (Caco-2 cells [1]; Example 3, FIG. 3, 1 wt. % compared with 0.1 wt. %) | recovery of TEER (Caco-2 cells [1]; Example 3, FIG. 3, 1 wt. % in calcium-containing DMEM, up to 3.5 h) | TEER right before exchanging the medium for calcium-free DMEM, versus negative and positive control groups (Caco-2 cells [4]; [5]) | decrease in TEER after exchange for calcium-free DMEM and elimination of 1-kestose, versus negative control group (Caco-2 cells [4]; [5]) | TEER right before exchanging the medium for calcium-free DMEM, versus negative and positive control groups (Caco-2 cells [4]; [6]) | decrease in TEER after exchange for calcium-free DMEM and elimination of 1-kestose, versus negative control group (Caco-2 cells [4]; [6]) | residual concentration of Lucifer Yellow in the lower layer, rank among all groups (Caco-2 cells [2]; 1 wt. %) |
| --- | --- | --- | --- | --- | --- | --- | --- | --- | --- | --- | --- | --- | --- | --- | --- | --- | --- | --- | --- |
| OC[C@H]1O[C@@](CO)(OC[C@@]2(OC[C@@]3(O[C@H]4O[C@H](CO)[C@@H](O)[C@H](O)[C@H]4O)O[C@H](CO)[C@@H](O)[C@@H]3O)O[C@H](CO)[C@@H](O)[C@@H]2O)[C@@H](O)[C@@H]1O [nystose] | significant recovery of TEER | significant recovery-promoting effect | significant reduction in the residual concentration | further reduced residual concentrations | – | – | – | – | – | – | – | – | – | – | – | – | – | – | – |
| OC[C@H]1O[C@@](CO)(OC[C@@]2(O[C@H]3O[C@H](CO)[C@@H](O)[C@H](O)[C@H]3O)O[C@H](CO)[C@@H](O)[C@@H]2O)[C@@H](O)[C@@H]1O [1-kestose] | significant recovery of TEER | significant recovery-promoting effect | significant reduction in the residual concentration | further reduced residual concentrations | 0.849 | approximately 26% | tendency of stronger promotion of recovery | 2.4 times | significant effect of promoting recovery of TEER | significant recovery of TEER | Recovery of TEER was hardly observed | significant recovery of TEER | tendency of stronger promotion of recovery of TEER | significant recovery of TEER | significant increase in TEER | tendency that a decrease in TEER in the 1-hour calcium (+) 1% kestose group was inhibited | significant increase in TEER | tendency that a decrease in TEER in the 6-hour calcium (+) 1% kestose group was inhibited | lowest residual concentration |
